Assay results: paper PMC9490829, “Elucidation of Structure–Activity Relationships in Indolobenzazepine-Derived Ligands and Their Copper(II) Complexes: the Role of Key Structural Components and Insight into the Mechanism of Action” (Inorganic Chemistry, 2022)
Like-named read-outs stand apart in the source and are kept apart here.

Assays:
[1] = test system: LM3 cells; design: method as in PMID 34995063; conditions: MTT assay, exposure 72 h; read-out: 50% inhibitory concentration (IC50) LM3; cited from earlier work
[2] = test system: HEK293 cells; design: method as in doi:10.1021/acs.organomet.9b00229; conditions: MTT assay, exposure 72 h; read-out: 50% inhibitory concentration (IC50) HEK293; cited from earlier work
[3] = test system: MDA-MB-231 cells; design: method as in PMID 34995063; conditions: MTT assay, exposure 72 h; read-out: 50% inhibitory concentration (IC50) MDA-MB-231; cited from earlier work
[4] = test system: HEK293 cells; assay: MTT assay, noncancerous HEK293; assay type: cell-based, human; conditions: exposure 72 h, read-out: 50% inhibitory concentration (IC50) HEK293
Method: (§1) The in vitro antiproliferative activity of novel organic compounds HL^1–HL^4 and corresponding copper(II) complexes 1–4 was tested in the breast cancer cell line MDA-MB-231, hepatocellular carcinoma cell line LM3, and human embryonic kidney cell line HEK293 and then compared to those of the previously reported paullones HL^5–HL^7 and copper(II) complexes 5–7,[39],[44] as well as latonduines HL^8–HL^11 and copper(II) complexes 8–11.[34] […] The in vitro anticancer activity was determined by the colorimetric MTT assay with an exposure time of 72 h.
(§2) Human breast adenocarcinoma MDA-MB-231 and human embryonic kidney HEK293 cells were obtained from ATCC. Hepatocellular carcinoma LM3 cells were a kind gift of Prof. Kan Man Hui (Duke-NUS Medical School). All cells were cultured in DMEM medium containing 10% FBS in tissue culture 75 cm^2 flasks (BDBiosciences, Singapore) at 37 °C in a humidified atmosphere of 95% air and 5% CO2. All stock solutions were prepared in DMSO. The amount of actual Cu concentration in stock solutions was verified by ICP-OES.
(§3) The cytotoxicity of the compounds was determined by the colorimetric MTT assay. The cells were harvested from culture flasks by trypsinization and seeded into CELLSTAR 96-well microculture plates at the seeding density of 6000 cells per well (6 × 10^4 cells/mL). […] Optical densities were measured at 570 nm using the BioTekH1 Synergy microplate reader. […]

[5] = test system: MDA-MB-231 cells; assay: MTT antiproliferative assay, MDA-MB-231; assay type: cell-based, human; conditions: exposure 72 h, read-out: 50% inhibitory concentration (IC50) MDA-MB-231
Method: as §1, §2, §3

[6] = test system: LM3 cells; assay: MTT antiproliferative assay, LM3; assay type: cell-based; conditions: exposure 72 h, read-out: 50% inhibitory concentration (IC50) LM3
Method: as §1, §2, §3

[7] = Solution stability (UV-vis, ESI-MS, 1H NMR); assay type: physicochemical; conditions: aqueous solution containing 1% DMSO, 72 h
Method: First, UV–vis kinetic studies were performed with the ligands HL^2 and HL^4 (Figure S30) and the copper(II) complexes 1–4 in aqueous solutions containing 1% DMSO (Figures S31 and 32). Additionally, the stability of the copper(II) complex 4 was also measured in phosphate-buffered saline (PBS) (pH ∼ 7.4) containing 3% DMSO over 24 h. […] Additional peaks which could be assigned to the dissociated ligand or any its fragments due to a hypothetical ligand degradation have not been registered. In addition to UV–vis data, the stability and purity of complex 4 were tested by analytical HPLC-HR ESI MS using methanol or acetonitrile with 0.1% formic acid as the eluent over 10 min. A single peak at around 1 min corresponding to [Cu^II(L^4)]^+ (found m/z = 506.9939 (Figure S23), calcd m/z for C23H17BrCuN5 507.0063) was registered in agreement with other experiments. In addition, the stability of HL^4 in 1:1 DMSO-d6/D2O at 25 °C was monitored by ^1H NMR spectroscopy. […] In addition, solution stability of the lead complex 4 was studied in ethanol-cell culture medium (1:1 v/v) by monitoring the electronic absorption spectra in the visible region within a time period of 8 h (Figure S34, Supporting Information).

For N.N.[Cl][Pt][Cl] [cisplatin], the IC50 [1] is listed as 10 ± 3 µM, the IC50 [2] is listed as 3.4 ± 1.1 µM and the IC50 [3] is listed as 21 ± 5 µM.
Molecule C(=N\N=C1/NCc2ccccc2-c2[nH]c3ccccc3c21)/c1ccccn1 [HL^1] has an IC50 [4] of 2 ± 0.1 µM, an IC50 [5] of 1.5 ± 0.1 µM and an IC50 [6] of 1.4 ± 0.2 µM. The “stability by UV–vis absorption spectra” value [7] was “no changes in the UV–vis absorption spectra over 72 h”.
